What was measured:
[1] = The pharmacokinetic parameter volume of distribution in vivo in rats; type: ADME, organism-based; details: rat, read-out: Vdss
[2] = molecular target: Vascular endothelial growth factor receptor 2 (Homo sapiens, UniProt P35968)
Description: Inhibition of Vascular endothelial growth factor receptor 2

[3] = Bioavailability in rat; type: ADME, organism-based; details: in vivo
[4] = The pharmacokinetic parameter half-life period in vivo in rats; type: ADME, organism-based; details: rat
[5] = molecular target: Vascular endothelial growth factor receptor (Homo sapiens, UniProt P17948+P35916+P35968); details: endothelial cell
Description: Inhibition of VEGF-stimulated mitogenesis in endothelial cells

[6] = The pharmacokinetic parameter plasma clearance in vivo in rats; type: ADME, organism-based; details: rat, read-out: CI
[7] = Partition coefficient (logP); type: physicochemical; details: octanol/water

Sequence of Vascular endothelial growth factor receptor 2 (P35968 whole entry): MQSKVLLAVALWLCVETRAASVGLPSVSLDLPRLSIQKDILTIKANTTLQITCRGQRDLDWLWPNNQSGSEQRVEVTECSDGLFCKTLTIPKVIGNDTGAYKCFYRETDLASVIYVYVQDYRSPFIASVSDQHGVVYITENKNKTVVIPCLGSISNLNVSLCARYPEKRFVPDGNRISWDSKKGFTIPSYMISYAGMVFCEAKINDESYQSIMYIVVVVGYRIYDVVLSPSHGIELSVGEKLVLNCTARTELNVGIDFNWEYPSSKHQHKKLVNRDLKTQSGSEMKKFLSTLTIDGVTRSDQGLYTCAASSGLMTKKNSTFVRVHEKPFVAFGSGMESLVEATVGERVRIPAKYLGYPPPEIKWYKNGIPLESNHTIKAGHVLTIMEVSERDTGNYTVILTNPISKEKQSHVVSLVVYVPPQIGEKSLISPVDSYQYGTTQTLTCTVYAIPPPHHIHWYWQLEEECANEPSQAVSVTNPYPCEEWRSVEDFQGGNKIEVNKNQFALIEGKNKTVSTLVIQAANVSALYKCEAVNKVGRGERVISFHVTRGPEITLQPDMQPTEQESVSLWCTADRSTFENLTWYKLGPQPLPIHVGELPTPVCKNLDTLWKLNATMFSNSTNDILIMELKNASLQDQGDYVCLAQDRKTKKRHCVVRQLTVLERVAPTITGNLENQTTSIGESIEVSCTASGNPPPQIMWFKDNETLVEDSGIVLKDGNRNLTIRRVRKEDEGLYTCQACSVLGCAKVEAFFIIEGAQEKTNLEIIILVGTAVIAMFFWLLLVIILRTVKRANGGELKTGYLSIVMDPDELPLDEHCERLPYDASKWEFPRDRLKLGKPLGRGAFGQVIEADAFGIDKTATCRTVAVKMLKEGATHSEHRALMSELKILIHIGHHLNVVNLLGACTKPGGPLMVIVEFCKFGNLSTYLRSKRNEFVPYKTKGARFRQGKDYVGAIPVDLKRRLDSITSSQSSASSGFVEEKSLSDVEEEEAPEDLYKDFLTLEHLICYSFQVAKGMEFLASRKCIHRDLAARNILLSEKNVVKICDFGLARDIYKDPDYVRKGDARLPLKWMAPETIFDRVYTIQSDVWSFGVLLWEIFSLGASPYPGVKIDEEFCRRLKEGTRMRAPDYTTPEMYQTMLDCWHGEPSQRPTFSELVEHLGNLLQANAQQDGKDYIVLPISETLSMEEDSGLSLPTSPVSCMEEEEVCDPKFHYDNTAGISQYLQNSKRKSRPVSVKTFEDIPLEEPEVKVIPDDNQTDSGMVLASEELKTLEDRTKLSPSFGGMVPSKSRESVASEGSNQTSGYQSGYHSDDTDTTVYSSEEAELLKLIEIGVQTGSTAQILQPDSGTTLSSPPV

Row | SMILES | Vd [1] | bioavailability [3] | half-life [4] | IC50 [5] | logP [7] | other results
1 | c1cc(-c2cnn3cc(-c4ccc(OCCN5CCCCC5)cc4)cnc23)cs1 [L-21649] | 16 L/kg | 18% | 306 min |  | > 4 | 
2 | c1ccc(-c2cnn3cc(-c4ccc(OCCN5CCOCC5)cc4)cnc23)cc1 |  |  |  | 32 nM |  | IC50 [2]: 9 nM
3 | CN1CCN(CCCn2ccc(-c3cnc4c(-c5ccccc5)cnn4c3)cc2=O)CC1 |  |  |  |  | 2 | 
4 | CN1CCN(CCCn2ccc(-c3cnc4c(-c5ccsc5)cnn4c3)cc2=O)CC1 | 7.9 L/kg | 56% | 204 min |  | 1.6 | 
5 | O=c1cc(-c2cnc3c(-c4ccccc4)cnn3c2)ccn1CCCN1CCCCC1 |  |  |  |  | 2.4 | 

More lines, main results first:

Row | Vd [1] | bioavailability [3] | half-life [4] | IC50 [5] | logP [7] | SMILES | other results
6 | 6 L/kg | 42% | 198 min | 29 nM |  | c1cncc(-c2cnn3cc(-c4ccc(OCCN5CCCCC5)cc4)cnc23)c1 | IC50 [2]: 20 nM; clearance [6]: 23 mL/min/kg
7 |  |  |  |  | > 4 | COc1ccc(-c2cnc3c(-c4ccsc4)cnn3c2)cc1 | 
8 |  |  |  | 31 nM |  | c1cc(-c2cnn3cc(-c4ccc(OCCN5CCOCC5)cc4)cnc23)ccn1 | 
9 |  |  |  | 150 nM |  | COc1ccc(-c2cnc3c(-c4ccncc4)cnn3c2)cc1 | 

Reference: ChEMBL document CHEMBL1135002, “Optimization of a pyrazolo[1,5-a]pyrimidine class of KDR kinase inhibitors: improvements in physical properties enhance cellular activity and pharmacokinetics” (Bioorg Med Chem Lett, 2002)
